Laboratory results: US20200181709A1, “METHODS OF DETECTION AND TREATMENT OF UROTHELIAL CANCER” (THE JOHNS HOPKINS UNIVERSITY, priority 2015, published 2020)
“Also recorded” adds a separate entry of the source.

Columns and labels:
[1] = tested on: CCND2 expression in UCC cell lines; assay: Q-RT-PCR of CCND2 expression after 5-aza-dc and/or TSA treatment of UCC cell lines; type: cell-based; conditions: 5 μM 5-aza-dc for 5 days, vs PBS control
Procedure: (§1) UCC cells were seeded in 75 cm2 culture flasks at a density of […] and incubated at 37° C. in 5% CO2/95% air overnight. Cells were then treated with 5μM of 5-aza-dc (Sigma Chemical, Sigma, USA) for 5 days. […] Additionally, combination treatment with 5-aza-dc and TSA was performed by adding 5μM of 5-aza-dc daily for 5 days and TSA (300 nmol/L; Sigma) was added to the medium for the final 24 hours. […] PBS (phosphate buffered saline) alone was used as a control to exclude non-specific solvent effects on cells. All experiments were run independently twice. RNA was extracted using Qiazol Lysis reagent (Qiagen, Valencia, Calif.) according to the manufacturer's instructions. One microgram of total RNA was used for cDNA conversion using the Quantitect Reverse Transcription Kit (Qiagen, Valencia, Calif.), following manufacturer's protocol. Q-RT-PCR was performed using the SYBR Green chemistry in a 7900HT Real-Time PCR System (Applied Biosystems, Foster City, CA). […] The RT-PCR primer sequences are available in Supplementary Table 2B. […] Quantitative reverse transcriptase PCR was performed to determine whether promoter methylation of CCNA1 and CCND2 inversely correlated with their expression. […]

[2] = tested on: CCNA1 expression in UCC cell lines; assay: Q-RT-PCR of CCNA1 expression after 5-aza-dc and/or TSA treatment of UCC cell lines; type: cell-based; conditions: SW780 and J82 cell lines; 5 μM 5-aza-dc for 5 days; vs PBS control
Procedure: as §1

Question: How did the “CCND2 expression (real-time RT-PCR)” value ([1]; HT1376 cell line) turn out when Nc1ncn([C@H]2C[C@H](O)[C@@H](CO)O2)c(=O)n1 [5-aza-dc, 5-aza-deoxycytidine] was run?
Answer: overexpression was observed after 5-aza-dc treatment only (not significant)

Question: What about the “CCND2 expression (real-time RT-PCR)” value ([1]; UMUC-3, J82 and T24 cell lines) of the same compound?
Answer: Reactivation of CCND2 was observed

Question: What about the “CCNA1 expression (real-time RT-PCR)” value [2] of the same compound?
Answer: re-expression of CCNA1; also recorded: Reactivation of CCNA1 was observed
